These results are taken from paper PMC5618791, “Double quick, double click reversible peptide “stapling”” (Chemical Science, 2017).

Data set [1] deals with FITC-BID/Mcl-1 interaction (Homo sapiens, UniProt Q07820). Put plainly: Fluorescence anisotropy competition assay, FITC-BID/Mcl-1. To be noted: 25 nM tracer, 150 nM protein, 50 mM Tris, 150 mM NaCl, 0.61% Triton X-100, pH 7.40; 1 h, room temperature; triplicate; read-out: IC50, inhibition of the FITC-BID/Mcl-1 interaction. In kind it is binding. As to the method: fluorescein-labelled FITC-Ahx-BID (80-102) was synthesised and purified as stated […]
(§1) Fluorescence anisotropy assays were performed in 384-well black plates (Greiner Bio-one).
(§2) Each experiment was run in triplicate and fluorescence anisotropy was measured using a Perkin Elmer EnVisionTM 2103 MultiLabel plate reader. […]
- 50 mM phosphate buffer at pH 7.5, containing 200 mM NaCl and 0.05% of tween for […]
(§3) 20 µL of assay buffer were first added to each well.
(§4) For each competition assay, 20 µL of a solution of α-helix mimetics (1 mM in 90:10 (v/v) assay buffer: DMSO) were added to the first column. The solution was well mixed and 20 µL were taken out and added to the next column and so on. This operation consisted on serial dilution of the peptides across the plate (24-points, 1/2 serial dilution). The tracer peptide and the targeted protein were added to each well to give a final concentration of 25 nM and […]
(§5) For control wells in both assays, the tracer peptide was replaced with an identical volume of assay buffer. […] Plates were read after 1 h of incubation […]
(§6) The average anisotropy (across three experimental replicates) and the standard deviation of these values were then calculated and fit to a sigmoidal logistic model (Equation 3) using OriginPro 9.0 which provided the IC50 and error values.
On the technique in general: Polarisation of emitted light reports the rotation of a fluorescent probe.

Data set [2] can be described thus: Trypsin proteolysis followed by LC-MS. The settings on record: trypsin from bovine pancreas (isolated protease), pH 7.5, 1:10000 enzyme/substrate ratio, 50 mM phosphate buffer, 200 mM NaCl, pH 7.50, peptide 200 μM stock, 5% DMSO, LC-MS of intact peptide at 0, 5, 12, 21, 45, 90 min, read-out: t1/2, trypsin proteolysis. In kind it is in vitro ADME. As to the method:
Proteolysis studies on BID peptides
Trypsin, modified sequencing grade from bovine pancreas (lyophilized powder, MW = 24 kDa, ≥ 4 units/mg protein) was purchased from Sigma-Aldrich and used without further purification. BID peptides (200 µM stock in PBS buffer pH 7.50, 5% DMSO) were treated with Trypsin (0.02 µM stock solutions in PBS buffer pH 7.50) in a 1:10000 enzyme/substrate ratio.
The degradation was followed with LCMS (Aeris Peptide LC-Column XB-C18 2.6 µm, 100x2.1 mm, injection volume: 5 µL, acetonitrile/water (0.1% formic acid) 5-95% gradient).
The degradation pattern of each peptide (figure A) could be identified by mass spectrometry.
The cleavage sites are marked by dotted lines and the subsequent fragment masses, shown in squares, are allocated to a number which is reported on the LCMS graph (graph B).
The LCMS traces (graph B) of each peptide incubated with Trypsin were recorded at the following successive times: 0, 5, 12, 21, 45 and 90 min.
(graph C) was integrated to extract kinetic values.

Data set [3] concerns the target BODIPY-BAK/Bcl-xL interaction (Homo sapiens, UniProt Q07817). Put plainly: Fluorescence anisotropy competition assay, BODIPY-BAK/Bcl-xL. It is filed as binding. To be noted: 25 nM tracer, 150 nM protein, 50 mM phosphate, 200 mM NaCl, 0.02 mg mL-1 BSA, pH 7.50; 1 h, room temperature; triplicate; read-out: IC50, inhibition of the BODIPY-BAK/Bcl-xL interaction. How it is done: as §1, §2
- 50 mM phosphate buffer at pH 7.5, containing 200 mM NaCl and 0.02 mg.mL-1 bovine serum albumin (BSA) for BODIPY-BAK/Bcl-xL. […]
as §3, §4
For each direct titration assay, 20 µL of a solution of the protein (60 µM in assay buffer) were added to the first column. […]
as §5, §6

Data set [4] is described as follows: Circular dichroism, % helicity. It is filed as physicochemical. To be noted: CD, peptide 10-20 μM, calculated from MRE at 222 nm. How it is done:
Samples were prepared in two different solvent systems (30% TFE:H2O, 30% CH3CN:water) to concentrations between 10 - 20 μM (Figure S 23). Considering the high number of hydrophobic residues in BID and S peptides, organic co-solvents were used to ensure good solubility and avoid aggregation at concentrations high enough for CD analyses. DMSO stocks of peptides were not used for CD due to its high absorbance below 230 nm.
The raw circular dichroism data obtained for the peptides was processed by the subtraction of the solvent signal and converted into a mean residue ellipticity:
Where = molar ellipticity[θ]MRE per residue, θ = circular dichroism at a given wavelength, c = molar concentration, l = path length in cm, R = number of residues in the peptide sequence.
Calculation of % helicity was performed by the following equation:[4]
Where: θH = Theoretical MRE for 100% helicity at 222 nm, θ0 = Theoretical MRE for 100% helicity at 222 nm at 0 °C = –44000, (∂θ/∂T) = temperature dependence of infinite helix = +250, T = temperature in °C, x = 3, Nr = number of residues in the peptide.
In both solvent systems, it is noteworthy that STA-peptides are more helical than RED-peptides or WT-peptides; with the exception of constrained S-Cys-peptides. The use of TFE as co-solvent in water enhances the α-helicity of both series of peptides compared to the use of acetonitrile in water. […]
thus bioactive) conformation. The S peptides show a low helix propensity which is consistent […]
Figure S 23: CD spectra A. and B. in 30% TFE:H 2O; C. and D. in 30% CH3CN:H 2O.
Table 1: Percentage of helicity in the three solvent systems […]
(also on this page, place not known: Molar residue ellipticity (deg.cm 2 .dmol -1 ) Molar residue ellipticity (deg.cm 2 .dmol -1 ) Molar residue ellipticity (deg.cm 2 .dmol -1 ) Molar residue ellipticity (deg.cm 2 .dmol -1 ) TFE:H2O; CH3CN:H2O.)

Starred links: 1 amine or outer side, 2 acyl side, 3 side chain; linkers in the order of their positions; H or OH if unused. Positions of bridges follow the written chain, without caps; N, C: chain ends. Non-standard residues stand in square brackets, D forms with d. Residues, ends and D or L forms follow the SMILES beside them. Maleimide(3,4-diyl) = O=C1NC(=O)C([*:2])=C1[*:1]; Nle = CCCC[C@H](N)C(=O)O

Chain of BODIPY-BAK/Bcl-xL interaction (Q07817 whole entry): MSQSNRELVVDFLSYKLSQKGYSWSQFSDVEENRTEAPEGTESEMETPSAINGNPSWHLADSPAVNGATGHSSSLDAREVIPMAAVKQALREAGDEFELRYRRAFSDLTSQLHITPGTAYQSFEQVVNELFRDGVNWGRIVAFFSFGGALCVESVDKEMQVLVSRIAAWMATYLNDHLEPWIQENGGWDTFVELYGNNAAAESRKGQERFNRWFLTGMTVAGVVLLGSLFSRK
Chain of FITC-BID/Mcl-1 interaction (Q07820 172-327 limits assumed): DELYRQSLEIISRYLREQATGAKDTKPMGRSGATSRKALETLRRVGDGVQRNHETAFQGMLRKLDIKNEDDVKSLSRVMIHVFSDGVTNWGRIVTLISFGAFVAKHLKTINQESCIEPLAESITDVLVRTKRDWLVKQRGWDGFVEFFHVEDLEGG

On to `CCCC[C@H](NC(=O)[C@H](CS)NC(=O)[C@H](CC(=O)O)NC(=O)CNC(=O)[C@@H](NC(=O)[C@H](CS)NC(=O)[C@H](C)NC(=O)[C@H](CC(C)C)NC(=O)[C@H](Cc1c[nH]cn1)NC(=O)[C@H](CCCNC(=N)N)NC(=O)[C@H](C)NC(=O)[C@@H](NC(=O)[C@H](CC(N)=O)NC(=O)[C@H](CCCNC(=N)N)NC(=O)[C@@H](NC(=O)[C@@H](NC(=O)[C@H](CC(=O)O)NC(=O)[C@H](CCC(=O)O)NC(C)=O)[C@@H](C)CC)[C@@H](C)CC)[C@@H](C)CC)C(C)C)C(=O)N[C@@H](CC(=O)O)C(=O)N[C@@H](CCCNC(=N)N)C(=O)N[C@@H](CO)C(=O)N[C@H](C(=O)N[C@@H](Cc1c[nH]c2ccccc12)C(N)=O)[C@@H](C)CC` [1a] (Ac-EDIIRNIARHLACVGDC[Nle]DRSIW-NH2), for which the IC50 in data set [1] was found to be 23.4 µM; in data set [3], 70.9 µM. In addition, the half-life in data set [2] was found to be 22 min.

In the case of `CCCC[C@H](NC(=O)[C@H](CCS)NC(=O)[C@H](CC(=O)O)NC(=O)CNC(=O)[C@@H](NC(=O)[C@H](CCS)NC(=O)[C@H](C)NC(=O)[C@H](CC(C)C)NC(=O)[C@H](Cc1c[nH]cn1)NC(=O)[C@H](CCCNC(=N)N)NC(=O)[C@H](C)NC(=O)[C@@H](NC(=O)[C@H](CC(N)=O)NC(=O)[C@H](CCCNC(=N)N)NC(=O)[C@@H](NC(=O)[C@@H](NC(=O)[C@H](CC(=O)O)NC(=O)[C@H](CCC(=O)O)NC(C)=O)[C@@H](C)CC)[C@@H](C)CC)[C@@H](C)CC)C(C)C)C(=O)N[C@@H](CC(=O)O)C(=O)N[C@@H](CCCNC(=N)N)C(=O)N[C@@H](CO)C(=O)N[C@H](C(=O)N[C@@H](Cc1c[nH]c2ccccc12)C(N)=O)[C@@H](C)CC` [1b], the half-life in data set [2] is 32 min. Besides, the “Percentage of helicity, 30% TFE:H2O” value in data set [4] is given as 23%.

With `CCCC[C@H](NC(=O)[C@@H]1CSC2=C(SC[C@H](NC(=O)[C@H](C)NC(=O)[C@H](CC(C)C)NC(=O)[C@H](Cc3c[nH]cn3)NC(=O)[C@H](CCCNC(=N)N)NC(=O)[C@H](C)NC(=O)[C@@H](NC(=O)[C@H](CC(N)=O)NC(=O)[C@H](CCCNC(=N)N)NC(=O)[C@@H](NC(=O)[C@@H](NC(=O)[C@H](CC(=O)O)NC(=O)[C@H](CCC(=O)O)NC(C)=O)[C@@H](C)CC)[C@@H](C)CC)[C@@H](C)CC)C(=O)N[C@@H](C(C)C)C(=O)NCC(=O)N[C@@H](CC(=O)O)C(=O)N1)C(=O)NC2=O)C(=O)N[C@@H](CC(=O)O)C(=O)N[C@@H](CCCNC(=N)N)C(=O)N[C@@H](CO)C(=O)N[C@H](C(=O)N[C@@H](Cc1c[nH]c2ccccc12)C(N)=O)[C@@H](C)CC` [3a] (Ac-EDIIRNIARHLACVGDC[Nle]DRSIW-NH2; linker 13-17 via Maleimide(3,4-diyl)), the IC50 in data set [1] amounted to 16.6 µM; in data set [3], 19.4 µM. Also, the half-life in data set [2] stood at 75 min.

On to `CCCC[C@H](NC(=O)[C@@H]1CCSC2=C(SCC[C@H](NC(=O)[C@H](C)NC(=O)[C@H](CC(C)C)NC(=O)[C@H](Cc3c[nH]cn3)NC(=O)[C@H](CCCNC(=N)N)NC(=O)[C@H](C)NC(=O)[C@@H](NC(=O)[C@H](CC(N)=O)NC(=O)[C@H](CCCNC(=N)N)NC(=O)[C@@H](NC(=O)[C@@H](NC(=O)[C@H](CC(=O)O)NC(=O)[C@H](CCC(=O)O)NC(C)=O)[C@@H](C)CC)[C@@H](C)CC)[C@@H](C)CC)C(=O)N[C@@H](C(C)C)C(=O)NCC(=O)N[C@@H](CC(=O)O)C(=O)N1)C(=O)NC2=O)C(=O)N[C@@H](CC(=O)O)C(=O)N[C@@H](CCCNC(=N)N)C(=O)N[C@@H](CO)C(=O)N[C@H](C(=O)N[C@@H](Cc1c[nH]c2ccccc12)C(N)=O)[C@@H](C)CC` [3b], for which the half-life in data set [2] stood at 84 min. Moreover, the “Percentage of helicity, 30% CH3CN:H2O” value in data set [4] (30% CH3CN:H2O) was 43%. Moreover, in data set [4], the “Percentage of helicity, 30% TFE:H2O” value is listed as 47%.
